# Values quoted from earlier work as cited in PMC11289879 (RSC Chemical Biology, 2024).
# Legend:
# acute heart failure = conditions: clinical trial (Novartis; second phase III)
solubility in an acidic solvent,Substance,effect on the treatment of acute heart failure (acute heart failure)
,Human relaxin-2 [H2 relaxin],no significant effect
poorly soluble,DSWMEEVIKLCGRELVRAQIAICGMSTWS [B-chain],
